# Where two headings read alike, the source gives them in different places.
# Key:
# Type in all cases: cell-based
# [1] = test system: ENO1-rescued (D423 ENO1) glioma cells; experiment: cells; settings: for activity in cell proliferation assay (FIG. 1): 5 days
# Protocol: (§1) FIGS. 1A, 1B, 1C, and 1D show cell proliferation assays for enolase inhibitors HEX (1A), FLM37 (1B), CDP18 (1C), and VCY32 (1D) against (i) ENO1-deleted (D423), (ii) ENO1-rescued (D423 ENO1), and (iii) ENO1-wildtype (LN319) glioma cells. Cells were incubated with pro-drug inhibitor for 5 days. Then, cells were fixed and stained with crystal violet and quantified spectroscopically. Numerical labels indicate concentration of enolase inhibitor in nM.
# (§2) FIGS. 2A, 2B, and 2C show plots of relative cell density (vertical axis) against concentration (horizontal axis, nM) of enolase inhibitors FLM37 (2A), CDP18 (2B), and VCY32 (2C) for (i) ENO1-deleted (D423), (ii) ENO1-rescued (D423 ENO1), and (iii) ENO1-wildtype (LN319) glioma cells.
# (§3) See, Leonard et al. (2016) Nat. Chem. Biol. 12:1053-1058 and Satani et al. (2016) PLos One, 11:e0168739, each of which is incorporated by reference for all purposes. Then, cells were fixed and stained with crystal violet and quantified spectroscopically. Cell density as measured by crystal violet were plotted as a function of inhibitor.
# (§4) FIGS. 1A, 1B, 1C, and 1D show representative cell proliferation assays for the compounds HEX (1A), FLM37 (1B), CDP18 (1C), and VCY32 (1D). For each compound, assays are run against (i) ENO1-deleted (D423), (ii) ENO1-rescued (D423 ENO1), and (iii) ENO1-wildtype (LN319) glioma cells.
# [2] = test system: ENO1-wildtype (LN319) glioma cells; experiment: Crystal violet cell proliferation assay, ENO1-wildtype LN319 cells; settings: for activity in cell proliferation assay (FIG. 1): 5 days
# Protocol: as §1, §2
# (§5) Numerical labels indicate concentration of enolase inhibitor in nM.
# as §3, §4
# [3] = test system: ENO1-deleted (D423) glioma cells; experiment: Crystal violet cell proliferation assay, ENO1-deleted D423 cells; settings: for IC50: Glioma cell
# Protocol: as §1, §2, §5, §3, §4
# [4] = Glioma cell, table of Formula V compounds, R6 = POM, read-out: IC50, D423 EN01 (ENO1 +/+)
# [5] = table of Formula V compounds, R6 = POM, read-out: IC50, D423 EN01 (ENO1 +/+)
# [6] = Glioma cell, footnote, experiment with VCY32, read-out: IC50 in reference to respective POMHEX control
# [7] = LN-319, ENO1-wildtype (LN319), read-out: IC50, LN319 (ENO1+/+)
# [8] = ENO1-deleted (D423), read-out: IC50,D423 (ENO1−/−)
compound,measurement,setting,value
"CC(C)(C)C(=O)OCOP(=O)(NCc1ccccn1)C1CCCN(O)C1=O (stereo not drawn) [KY9, (((1-hydroxy-2-oxopiperidin-3-yl){(pyridin-2-ylmethyl)amino)phosphoryl)oxy)methyl pivalate]",IC50,[1]; [4],96.2 nM
"CC(C)(C)C(=O)OCOP(=O)(NCc1cccc(F)c1)C1CCCN(O)C1=O (stereo not drawn) [CDP12, ((((3-fluorobenzyl)amino)(1-hydroxy-2-oxopiperidin-3-yl)phosphoryl)oxy)methyl pivalate]",IC50,[1]; [4],103 nM
"((((2,4-difluorobenzyi)amino)(1-hydrnxy-2-oxopiperidin-3-yl)phosphoryl)oxy)methyl pivalate [CDP14]",IC50,[1]; [5],80.3 nM
"CC(C)(C)C(=O)OCOP(=O)(NCC1CC1)C1CCCN(O)C1=O (stereo not drawn) [VCY32, ((((Cyclopropylmethyl)amino)(1-hydroxy-2-oxopiperidin-3-yl)phosphoryl)oxy)methyl pivalate]",activity in cell proliferation assay (FIG. 1),[2]; ENO1-wildtype (LN319),activity at the micromolar range or better
same,activity in cell proliferation assay (FIG. 1),[1]; ENO1-rescued (D423 ENO1),activity at the micromolar range or better
same,IC50,[1]; [6],22 nM
same,IC50,[1]; [4],22 nM
same,activity in cell proliferation assay (FIG. 1),"[3]; ENO1-deleted (D423), 5 days",activity at the micromolar range or better
"CC(C)(C)C(=O)OCOP(=O)(NCc1ccc(F)cc1)C1CCCN(O)C1=O (stereo not drawn) [VCY19, ((((4-fluorobenzyl)amino)(1-hydroxy-2-oxopiperidin-3-yl)phosphoryl)oxy)methyl pivalate]",IC50,[1]; [4],129 nM
"CCCCCCCCCCCCNP(=O)(O)C1CCCN(O)C1=O (stereo not drawn) [CDP22, N-dodecyl-P-(1-hydroxy-2-oxopiperidin-3-yl)phosphonamidic acid]",inhibition / activity in ENO1-wildtype (LN319) cells (FIG. 3),[2]; ENO1-wildtype (LN319),shows activity
same,IC50,[2]; [7],844 nM
same,IC50,"[2]; LN-319, text b400, read-out: IC50 values for ENO1-wildtype (LN319) glioma cells (i) (FIGS. 4A, 4B)",24 nM
same,"level of inhibition of ENO1-deleted (D423) cells (FIG. 3), in words",[3]; ENO1-deleted (D423),sub-micromolar levels
same,IC50,[3]; [8],58 nM
((((Cyclohexylmethyl)amino)(1-hydro:xy-2-oxopiperidin-3-yl)phosphoryl)oxy)methyl pivalate [CDP18],activity in cell proliferation assay (FIG. 1),[2]; ENO1-wildtype (LN319),activity at the micromolar range or better
same,activity in cell proliferation assay (FIG. 1),[1]; ENO1-rescued (D423 ENO1),activity at the micromolar range or better
same,IC50,[1]; [5],81.1 nM
same,activity in cell proliferation assay (FIG. 1),"[3]; ENO1-deleted (D423), 5 days",activity at the micromolar range or better
"CC(C)(C)C(=O)OCOP(=O)(NCc1ccccc1)C1CCCN(O)C1=O (stereo not drawn) [FLM37, (((benzylamino)(1-hydroxy-2-oxopiperidin-3-yl)phosphoryl)oxy)methyl pivalate]",activity in cell proliferation assay (FIG. 1),[2]; ENO1-wildtype (LN319),activity at the micromolar range or better
same,activity in cell proliferation assay (FIG. 1),[1]; ENO1-rescued (D423 ENO1),activity at the micromolar range or better
same,IC50,[1]; [4],244 nM
same,activity in cell proliferation assay (FIG. 1),"[3]; ENO1-deleted (D423), 5 days",activity at the micromolar range or better
"CN(C)P(=O)(OCOC(=O)C(C)(C)C)C1CCCN(O)C1=O (stereo not drawn) [CDP21, (((dimethylamino)(1-hydroxy-2-oxopiperidin-3-yl)phosphoryl)oxy)methyl pivalate]",IC50,"[2]; LN-319, read-out: IC50, LN319 (ENO1+/+)",5060 nM
same,IC50,"[1]; Glioma cell, read-out: IC50, D423 EN01 (ENO1 +/+)",115 nM
same,IC50,"[1]; Glioma cell, read-out: IC50,D423 ENO1 (ENO1+/+)",2170 nM
same,selectivity for ENO1-deleted cells,[3],selective for ENO1-deleted cells
same,IC50,[3]; 120 h,108 nM
same,IC50,"[3]; read-out: IC50,D423 (ENO1−/−)",108 nM
"CC(C)(C)C(=O)OCOP(=O)(OCOC(=O)C(C)(C)C)C1CCCN(O)C1=O (stereo not drawn) [POMHEX, (((1-hydroxy-2-oxopiperidin-3-yl)phosphoryl)bis(oxy))bis(methylene) bis(2,2-dimethylpropanoate), reference compound]",IC50,[1]; [6],41.5 nM
same,IC50,"[1]; Glioma cell, footnote, experiment with VCY34, read-out: IC50 in reference to respective POMHEX control",217 nM
same,IC50,[1]; [4],17.3 nM
"CNP(=O)(OCOC(=O)C(C)(C)C)C1CCCN(O)C1=O (stereo not drawn) [CDP23, (((1-hydroxy-2-oxopiperidin-3-yl)(methylamino)phosphoryl)oxy)methyl pivalate]",IC50,[2]; [7],1500 nM
same,IC50,"[1]; Glioma cell, ENO1-rescued (D423 ENO1), read-out: IC50,D423 ENO1 (ENO1+/+)",790 nM
same,IC50,[1]; [4],62.6 nM
same,greater potency compared to CDP21,[3],more than 2.5 fold
same,IC50,"[3]; 120 h, D423 cells, 5 days incubation, crystal violet, read-out: IC50",40 nM
same,IC50,[3]; [8],40 nM
same,selectivity for ENO1-deleted cells,"[3]; crystal violet cell proliferation assay, 5 days",selective for ENO1-deleted cells
"((((3,4-difluornhenzyl)amino)(1-hydro:xy-2-oxopiperidin-3-yl)phosphoryl)oxy)methyl pivalate [CDP13]",IC50,[1]; [5],84.6 nM
